In patent publication US8759386B2, “Pyrazole compounds as CRTH2 antagonists” (Boehringer Ingelheim International GmbH, priority 2011, dated 2014) one finds Ki data, which are given here for 51 molecules.

The first assay deals with human CRTH2 receptor (Homo sapiens (Human), UniProt Q9Y5Y4). As to the kind of experiment: CRTH2 receptor radioligand binding assay (SPA, [3H]-PGD2, CHO-K1-hCRTH2 cell membranes). As to conditions: Table 1, compounds of formula Ia″; displacement of [3H]-PGD2 from CHO-K1-hCRTH2 membranes. As to the method: Preparation of Human CRTH2 Receptor Membranes and Radioligand Binding Assay
human CRTH2 receptor, sequence (Q9Y5Y4 whole entry): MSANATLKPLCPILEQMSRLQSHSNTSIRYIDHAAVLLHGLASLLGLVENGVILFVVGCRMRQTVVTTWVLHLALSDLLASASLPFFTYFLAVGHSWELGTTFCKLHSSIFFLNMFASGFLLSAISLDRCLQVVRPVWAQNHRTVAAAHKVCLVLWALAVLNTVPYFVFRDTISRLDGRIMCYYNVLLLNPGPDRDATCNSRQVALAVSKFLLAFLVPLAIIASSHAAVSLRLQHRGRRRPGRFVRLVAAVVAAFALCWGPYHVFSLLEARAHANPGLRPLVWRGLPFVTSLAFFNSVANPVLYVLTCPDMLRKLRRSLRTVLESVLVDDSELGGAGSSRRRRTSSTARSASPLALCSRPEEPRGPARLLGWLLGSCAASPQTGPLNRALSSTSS
The binding of CRTH2 antagonists is determined using membranes prepared from Chinese hamster ovary cells (CHO-K1 cells) transfected with the human CRTH2 receptor (CHO-K1-hCRTH2 cells, Perkin Elmer, Cat No ES-561-C). To produce cell membranes the CHO-K1-hCRTH2 cells are cultured in suspension in CHO SFMII medium supplemented with 400 μg/mL G418. The cells are harvested by centrifugation at 300 g for 10 min at room temperature. The cell pellet is resuspended in Phosphate Buffer Saline (PBS) including a protease inhibitor mix (Complete, Roche) and adjusted to a concentration of 10E7 cells/mL. The CHO-K1-hCRTH2 cells are disrupted by nitrogen […] to obtain the membrane preparation. Cell debris is removed by centrifugation (500 g at 4° C., 30 min) and the supernatant is transferred into fresh tubes followed by a second centrifugation at 40000 g for 1 hour at 4° C. to sediment the membranes. The membranes are suspended in SPA incubation buffer (50 mM Tris HCl, 10 mM MgCl2, 150 mM NaCl, 1 mM EDTA, pH 7.4) without bovine serum albumin, homogenized by passing through a single use needle (Terumo, 23G×1″), and stored in aliquots at −80° C.
The CRTH2 receptor binding assay is performed in a scintillation proximity assay (SPA) format with the radioligand [^3H]-PGD2 (Perkin Elmer, NET616000MC). CHO-K1-hCRTH2 cell membranes are again homogenized by passing through a single use needle (Terumo, 23G×1″) and diluted in SPA incubation buffer in suitable concentrations (0.5-10 μg protein/well). The SPA assay is set up in 96 well microtiter plates (Perkin Elmer, Cat No. 6005040) in SPA incubation buffer with a final volume of 200 μL per well and final concentration of 50 mM Tris-HCl, 10 mM MgCl2, 150 mM NaCl, 1 mM EDTA pH 7.4, 0.1% bovine serum albumin). The SPA assay mixture contains 60 μl of the membrane suspension, 80 μL of Wheat Germ Agglutinin coated PVT beads (GE Healthcare, RPNQ-0001, 0.3 mg/well), 40 μL of [^3H]-PGD2 diluted in SPA buffer to a final concentration of 1 nM (50 000 dpm) and 20 μL of the test compound (dissolved in dimethylsulfoxide). The SPA assay mixture is incubated for 3 h at room temperature. Bound radioactivity is determined with a scintillation counter (Micro Beta Trilux, Wallac). The binding of [^3H]-PGD2 to CHO-K1-hCRTH2 cell membranes is determined in the absence (total binding, Bo) and presence (non-specific binding, NSB) of unlabelled PGD2 (1 μM, Cayman Chemical, Cat No 12010) or a reference CRTH2 antagonist (10 μM CAY10471, Cayman Chemical, Cat No 10006735). Determination of the affinity of a test compound is calculated by subtraction of the non-specific binding (NSB) from the total binding (Bo) or the binding in the presence of the test compound (B) at a given compound concentration. The NSB value is set to 100% inhibition. The Bo-NSB value is set to 0% inhibition.
% inhibition values were obtained at a defined compound concentration, e.g. at 1 μM, % inhibition of the test compound was calculated by the formula 100−((B−NSB)*100/(Bo−NSB)). % inhibition values above 100% are founded by assay variance.
As for `CCn1c(C(=O)Nc2ccc(Cn3nc(C)c(CC(=O)O)c3C)c(F)c2)cc2ccccc21` [Compound 31], the Ki (in general, a dissociation constant, usually derived from enzyme kinetics or from competition with a known ligand) turned out to be 0.2 nM.

With `CCc1c(C(=O)Nc2ccc(Cn3nc(C)c(CC(=O)O)c3C)cc2)oc2c(F)cccc12` [Compound 34], the affinity corresponds to a Ki of 0.3 nM.

As for `CCc1c(C(=O)Nc2ccc(Cn3nc(C)c(CC(=O)O)c3C)c(F)c2)oc2ccc(F)cc12` [Compound 47], affinity was put at a Ki of 0.9 nM.

Consider `Cc1nn(Cc2ccc(NC(=O)c3sc4ccc(F)cc4c3C)cc2F)c(C)c1CC(=O)O` [Compound 46], for which the Ki is 4.5 nM.

`CCc1nn(Cc2ccc(NC(=O)c3cc4cc(F)ccc4[nH]3)cc2)c(CC)c1CC(=O)O` [Compound 23] displayed a Ki of 0.3 nM.

With `CCc1nn(Cc2ccc(NC(=O)c3c(C)c4ccccc4n3C)cc2)c(CC)c1CC(=O)O` [Compound 24], the Ki stood at 9.9 nM.

As for `COc1ccc2[nH]c(C(=O)Nc3ccc(Cn4nc(C)c(CC(=O)O)c4C)cc3)c(C)c2c1` [Compound 14], the Ki was determined as 0.1 nM.

On to `CCc1nn(Cc2ccc(NC(=O)c3cc4ccccc4[nH]3)cc2)c(CC)c1CC(=O)O` [Compound 20], for which the affinity corresponds to a Ki of 0.3 nM.

For `Cc1nn(Cc2ccc(NC(=O)c3cc4cc(F)ccc4[nH]3)cc2)c(C)c1CC(=O)O` [Compound 12], the inhibitory constant (Ki) is 0.2 nM.

In turn, `CCn1c(C(=O)Nc2ccc(Cn3nc(C)c(CC(=O)O)c3C)c(F)c2)cc2ccc(F)cc21` [Compound 41] returned a Ki of 0.1 nM.

The molecule `CCCCn1c(C(=O)Nc2ccc(Cn3nc(C)c(CC(=O)O)c3C)c(F)c2)cc2cc(F)ccc21` [Compound 55] showed a Ki of 0.1 nM.

With `COc1cccc2cc(C(=O)Nc3ccc(Cn4nc(C)c(CC(=O)O)c4C)cc3)oc12` [Compound 9], the Ki stood at 1.2 nM.

`Cc1nn(Cc2ccc(NC(=O)c3cc4ccccc4n3Cc3ccccc3)cc2)c(C)c1CC(=O)O` [Compound 18] displayed an inhibition constant Ki of less than 0.1 nM.

As to `Cc1nn(Cc2ccc(NC(=O)c3oc4c(F)cccc4c3C)cc2F)c(C)c1CC(=O)O` [Compound 50], the affinity corresponds to a Ki of 0.4 nM.

Turning to `Cc1nn(Cc2ccc(NC(=O)c3cc4ccccc4n3C)cc2F)c(C)c1CC(=O)O` [Compound 30], the Ki is 1 nM.

As for `CCc1nn(Cc2ccc(NC(=O)c3cc4ccccc4n3C)cc2)c(CC)c1CC(=O)O` [Compound 21], the Ki turned out to be 0.3 nM.

In turn, `Cc1nn(Cc2ccc(NC(=O)c3cc4ccccc4[nH]3)cc2)c(C)c1CC(=O)O` [Compound 10] showed a Ki of 0.2 nM.

In the case of `Cc1nn(Cc2ccc(NC(=O)c3cc4ccccc4n3C)cc2)c(C)c1CC(=O)O` [Compound 16], the Ki was determined as 0.8 nM.

Consider `Cc1nn(Cc2ccc(NC(=O)c3oc4c(F)cccc4c3C)cc2)c(C)c1CC(=O)O` [Compound 7], for which the inhibition constant (Ki) worked out at 1.3 nM.

`Cc1nn(Cc2ccc(NC(=O)c3cc4ccccc4[nH]3)cc2Cl)c(C)c1CC(=O)O` [Compound 2] came in with a Ki of 0.5 nM.

`Cc1nn(Cc2ccc(NC(=O)c3cc4cc(Cl)ccc4o3)cc2)c(C)c1CC(=O)O` [Compound 8] registered a Ki of 0.3 nM.

The molecule `COc1ccc2oc(C(=O)Nc3ccc(Cn4nc(C)c(CC(=O)O)c4C)cc3)cc2c1` [Compound 6] gave a Ki of 0.6 nM.

`CCCn1c(C(=O)Nc2ccc(Cn3nc(C)c(CC(=O)O)c3C)c(F)c2)cc2cc(F)ccc21` [Compound 54] showed a Ki of 0.2 nM.

The molecule `CCn1c(C(=O)Nc2ccc(Cn3nc(C)c(CC(=O)O)c3C)cc2)cc2ccc(F)cc21` [Compound 29] returned a Ki of 0.1 nM.

Consider `Cc1nn(Cc2ccc(NC(=O)c3oc4c(Cl)cccc4c3C)cc2F)c(C)c1CC(=O)O` [Compound 37], for which the affinity, expressed as Ki, was 2.2 nM.

As to `Cc1nn(Cc2ccc(NC(=O)c3oc4c(Cl)cccc4c3C)cc2)c(C)c1CC(=O)O` [Compound 33, (1-(4-[(7-Chloro-3-methylbenzofuran-2-carbonyl)amino]benzyl)-3,5-dimethyl-1H-pyrazol-4-yl)acetic acid], the Ki was found to be 2.2 nM.

Molecule `Cc1nn(Cc2ccc(NC(=O)c3oc4ccc(Cl)cc4c3C)cc2F)c(C)c1CC(=O)O` [Compound 44] yielded a Ki of 0.3 nM.

`Cc1nn(Cc2ccc(NC(=O)c3cc4ccc(Cl)cc4o3)cc2F)c(C)c1CC(=O)O` [Compound 39]: the affinity, expressed as Ki, was 0.4 nM.

The molecule `CCCn1c(C(=O)Nc2ccc(Cn3nc(C)c(CC(=O)O)c3C)c(F)c2)cc2ccccc21` [Compound 56] returned an inhibition constant (Ki) of 0.2 nM.

For `CCc1nn(Cc2ccc(NC(=O)c3cc4ccc(F)cc4[nH]3)cc2)c(CC)c1CC(=O)O` [Compound 25], the Ki was found to be 0.2 nM.

In turn, `CCc1nn(Cc2ccc(NC(=O)c3cc4cc(Cl)ccc4o3)cc2)c(CC)c1CC(=O)O` [Compound 19] had a Ki of 0.2 nM.

Take `Cc1nn(Cc2ccc(NC(=O)c3cc4ccc(F)cc4[nH]3)cc2)c(C)c1CC(=O)O` [Compound 11]: affinity was put at a Ki of 0.2 nM.

For `COCc1c(C(=O)Nc2ccc(Cn3nc(C)c(CC(=O)O)c3C)c(F)c2)oc2ccccc12` [Compound 43], the Ki was 2.3 nM.

With `CCCn1c(C(=O)Nc2ccc(Cn3nc(C)c(CC(=O)O)c3C)c(F)c2)cc2ccc(F)cc21` [Compound 42], the inhibition constant (Ki) was 0.1 nM.

In turn, `Cc1nn(Cc2ccc(NC(=O)c3c(C)c4ccccc4n3C)cc2)c(C)c1CC(=O)O` [Compound 13] returned a Ki of 63.9 nM.

For the molecule `CCc1c(C(=O)Nc2ccc(Cn3nc(C)c(CC(=O)O)c3C)cc2)oc2c(F)cc(F)cc12` [Compound 35], the Ki stood at 0.3 nM.

Take `COc1ccc2oc(C(=O)Nc3ccc(Cn4nc(C)c(CC(=O)O)c4C)c(F)c3)c(C)c2c1` [Compound 49]: affinity was put at a Ki of 0.1 nM.

Take `Cc1nn(Cc2ccc(NC(=O)c3cc4ccc(Cl)cc4o3)cc2)c(C)c1CC(=O)O` [Compound 36]: the affinity, expressed as Ki, was 0.2 nM.

In turn, `CCCn1c(C(=O)Nc2ccc(Cn3nc(C)c(CC(=O)O)c3C)cc2)cc2ccc(F)cc21` [Compound 28] came in with a Ki of 0.1 nM.

Take `CCn1c(C(=O)Nc2ccc(Cn3nc(C)c(CC(=O)O)c3C)cc2)cc2ccccc21` [Compound 17]: the Ki was 0.4 nM.

`Cc1nn(Cc2ccc(NC(=O)c3cc4cc(F)ccc4n3C)cc2F)c(C)c1CC(=O)O` [Compound 51] yielded a Ki of 0.4 nM.

With `CCn1c(C(=O)Nc2ccc(Cn3nc(C)c(CC(=O)O)c3C)c(F)c2)cc2c(F)cccc21` [Compound 40], the Ki was found to be 0.4 nM.

`CCc1nn(Cc2ccc(NC(=O)c3cc4ccccc4n3CC)cc2)c(CC)c1CC(=O)O` [Compound 22] had a Ki of 0.2 nM.

Molecule `Cc1nn(Cc2ccc(NC(=O)c3cc4ccccc4s3)cc2)c(C)c1CC(=O)O` [Compound 15] showed a Ki of 0.3 nM.

Molecule `CCCc1c(C(=O)Nc2ccc(Cn3nc(C)c(CC(=O)O)c3C)c(F)c2)oc2ccc(F)cc12` [Compound 52] yielded a Ki of 0.7 nM.

As for `Cc1nn(Cc2ccc(NC(=O)c3cc4ccccc4o3)cc2Cl)c(C)c1CC(=O)O` [Compound 5], affinity was put at a Ki of 0.8 nM.

The molecule `CCCCn1c(C(=O)Nc2ccc(Cn3nc(C)c(CC(=O)O)c3C)c(F)c2)cc2ccccc21` [Compound 53] displayed a Ki of 0.2 nM.

In turn, `Cc1nn(Cc2ccc(NC(=O)c3cc4ccccc4n3Cc3ccccc3)cc2F)c(C)c1CC(=O)O` [Compound 3] showed a Ki of 0.2 nM.

The same assay, now with this note: Table 2, compounds of formula Ib″; displacement of [3H]-PGD2 from CHO-K1-hCRTH2 membranes.
As to `Cc1nn(Cc2ccc(NC(=O)c3coc4ccccc34)cc2)c(C)c1CC(=O)O` [Compound 57], the affinity, expressed as Ki, was 8.8 nM.

Regarding `Cc1nn(Cc2ccc(NC(=O)c3csc4ccccc34)cc2)c(C)c1CC(=O)O` [Compound 59], the Ki stood at 3.8 nM.

In the case of `Cc1nn(Cc2ccc(NC(=O)c3c[nH]c4ccccc34)cc2)c(C)c1CC(=O)O` [Compound 58], the Ki was 37.2 nM.
